In patent US20220128545A1, “METHODS AND COMPOSITIONS FOR ANALYZING PLATELETS BY MASS CYTOMETRY” (Children's Medical Center Corporation, priority 2018, published 2022):
Like-named read-outs stand apart in the source and are kept apart here. Bridge positions count the residues as written; N and C are the ends. Square brackets hold non-standard residues; d marks the D form. Peptide text beside a SMILES is read from it. hArg = N=C(N)NCCCC[C@H](N)C(=O)O; Mpa = O=C(O)CCS

Experiments:
[1] = molecular target: T1, activated integrin αIIbβ3 (Homo sapiens, UniProt P05106+P08514); experiment: Specificity of in-house metal-tagged PAC1 for integrin αIIbβ3 (agonist stimulation, eptifibatide blockade) by MC; assay type: cell-based; conditions: whole blood; for Platelet surface activated αIIbβ3 expression compared with unstimulated controls: 200 μM agonist, PAC1-159Tb
T1 construct: endogenous in cells; host or cells: platelets in citrate-anticoagulated human whole blood
Text: FIG. 6. depicts measuring the specificity of in-house metal-tagged PAC1 for integrin αIIbβ3. […] Samples were fixed in 1% formaldehyde and analyzed by MC. […] Statistical analysis: 1-way ANOVA was used in conjunction with a Bonferroni post-test (with all results compared to the MMI achieved with agonist stimulation) to indicate statistical significance; **P<0.01 and ***P<0.001.
(§1) A panel of metal-labeled antibodies directed against platelet antigens of interest was assembled (FIG. 1A). Antibody clones were well-characterized, widely used and purchased from reputable vendors. Platelets in whole blood were reacted with the panel (containing anti-CD9-171Yb, anti-CD29-176Yb, anti-CD31-145Nd, anti-CD36-150Nd, anti-CD42a-155Gd, anti-CD42b-163Dy, anti-CD41-149Sm, anti-CD62P-172Yb, anti-CD61-165Ho, anti-CD63-161Dy, anti-CD107a-166Er, anti-CD154-154Sm, anti-GPVI-152Sm and anti-PAC1-159Tb; see FIG. 1A, Materials, and Table 1 for antibody information) in the presence of vehicle (HT-BSA), TRAP or ADP at the indicated concentrations for 30 minutes (FIG. 1B). Samples were fixed in 1% formaldehyde/HEPES-saline solution containing 125 nM Iridium 191/193 Cell-ID DNA Intercalator for 30 minutes. […] Samples were passed through a 35 μm cell-strainer (Corning Inc, Corning, N.Y.) and analyzed on a Helios Mass Cytometer (Fluidigm Corporation, San Francisco, Calif.; FIG. 1C). […]
To compare the MC and FFC platforms for platelet analysis a novel metal-tagged MC antibody panel was designed to target well-established surface markers on platelets (FIG. 1A, Table 1) including platelet surface P-selectin (monitored with anti-CD62P-172Yb) and platelet surface activated integrin αIIbβ3 (monitored with the activation-dependent monoclonal antibody PAC1, labeled in-house with 159Tb). The specificity of PAC1-159Tb for activated αIIbβ3 was assessed by its dependence on platelet activation for binding and by its blockade by the αIIbβ3 inhibitor, eptifibatide (FIG. 6A-6B).

[2] = system: platelet surface P-selectin (CD62P); experiment: cells; assay type: cell-based, human
Procedure: (§2) FIGS. 2A-2D depict a comparison of MC and FFC platforms for measurement of agonist-stimulated integrin αIIbβ3 activation (PAC1) and P-selectin expression (CD62P) on platelets. Citrate-anticoagulated blood from 3 separate healthy donors was treated with vehicle or the indicated concentrations of ADP (A, B) or thrombin receptor activating peptide (TRAP) (C, D); for 30 minutes in the presence of PAC1-FITC or […] antibodies to assess integrin αIIbβ3 activation (A, C) and CD62P-PE or CD62P-172Yb antibodies to assess a-granule secretion (B, D). Samples were fixed in 1% formaldehyde and analyzed by MC or FFC. Data were analyzed using a non-linear fit of log agonist vs. response; variable slope in GraphPad Prism 5. Results are expressed as a percentage of mean metal intensity (MMI; MC readout) or the mean fluorescence intensity (MFI; FFC readout) achieved with 200 μM adenosine diphosphate (ADP) or TRAP, respectively (means±SEM; n=2/3, with n=2 accounting for the linear region of the TRAP dose-response [concentrations 1.5-3.5 μM] and n=3 accounting for all other concentrations [0-1 μM & 5-200 μM]).
(§3) Blood was collected by venipuncture with a 21-gauge butterfly needle into evacuated tubes containing 3.2% sodium citrate. Blood was drawn from healthy volunteers or GT patients who were free from antiplatelet agents and non-steroidal anti-inflammatory drugs for 10 days prior to the donation. The blood draws were performed by the same phlebotomist. Complete blood cell counts were performed in a Sysmex XN-1000 Hematology Analyzer.
as §1
(§4) Data were analyzed using GraphPad version 5.0 software (GraphPad Software, La Jolla, Calif.) and are presented as mean±standard error of the mean. […]

[3] = system: platelet surface activated integrin αIIbβ3; experiment: cells; assay type: cell-based, human
Procedure: as §2, §3, §1, §4

platelets in whole blood = experiment: MC panel of 12 additional platelet surface markers during TRAP or ADP stimulation; assay type: cell-based, human; conditions: 30 minutes; for Platelet surface CD41, CD61, CD63, CD9, CD107a and CD154 / Platelet surface CD42a and CD42b: agonist 0-200 μM; for Surface plasma membrane levels of CD31, CD36, CD29 and GPVI: varying agonist concentrations
Procedure: Citrate-anticoagulated blood from the same 3 separate healthy donors in FIGS. 2A-2D was simultaneously treated with vehicle or the indicated concentrations of TRAP (A) or ADP (B) for 30 minutes in the presence of a custom platelet-specific, metal-tagged antibody panel. This panel contained antibodies directed against CD41, CD61, CD63, CD9, CD107a, CD154, CD42a, CD42b, CD31, CD36, CD29 and GPVI. Samples were fixed in 1% formaldehyde and analyzed by MC. Data were analyzed using a non-linear fit of log agonist vs. response; variable slope or linear regression in GraphPad Prism 5. Results are expressed as a percentage of the mean metal intensity (MMI) achieved with 200 μM ADP or TRAP (means±SEM; n=2/3, with n=2 accounting for the linear region of the TRAP dose-response [concentrations 1.5-3.5 μM)] and n=3 accounting for all other concentrations [0-1 μM and 5-200 μM]). Statistical analysis: 1-way ANOVA was used in conjunction with a Dunnett multiple comparison test (all results compared to vehicle control) to indicate statistical significance; *P<0.05, **P<0.01 and ***P<0.001. Abbreviations: ADP, adenosine diphosphate; FFC, fluorescence flow cytometry; MC, mass cytometry; TRAP, thrombin receptor activating peptide.
A panel of metal-labeled antibodies directed against platelet antigens of interest was assembled (FIG. 1A). Antibody clones were well-characterized, widely used and purchased from reputable vendors. Platelets in whole blood were reacted with the panel (containing anti-CD9-171Yb, anti-CD29-176Yb, anti-CD31-145Nd, anti-CD36-150Nd, anti-CD42a-155Gd, anti-CD42b-163Dy, anti-CD41-149Sm, anti-CD62P-172Yb, anti-CD61-165Ho, anti-CD63-161Dy, anti-CD107a-166Er, anti-CD154-154Sm, anti-GPVI-152Sm and anti-PAC1-159Tb; see FIG. 1A, Materials, and Table 1 for antibody information) in the presence of vehicle (HT-BSA), TRAP or ADP at the indicated concentrations for 30 minutes (FIG. 1B). Samples were fixed in 1% formaldehyde/HEPES-saline solution containing 125 nM Iridium 191/193 Cell-ID DNA Intercalator for 30 minutes. Cells were washed two times in MilliQ deionized H2O to remove salts and resuspended in 0.5 mL of MilliQ deionized H20 containing EQ Four Element Calibration Beads (1:10 v/v [33,000 beads/mL]). Samples were passed through a 35 μm cell-strainer (Corning Inc, Corning, N.Y.) and analyzed on a Helios Mass Cytometer (Fluidigm Corporation, San Francisco, Calif.; FIG. 1C). Cell events were acquired at 300-500 events per second and >30,000 events were acquired in total. Platelets were gated based on DNA content (DNA-low) and CD41/CD61 expression (see FIG. 8 for the MC platelet gating strategy). High-dimensional analyses of platelet subpopulations were carried out using the visual stochastic neighbor embedding (viSNE) cluster analysis function in CYTOBANK™ software (www.cytobank.org). Experiments were carried out by the same scientist and all reagents were from the same lot.

[4] = system: platelet surface P-selectin (CD62P); experiment: cells; assay type: cell-based, human; remark: listed apart in the source
Procedure: as §2, §3
(§5) Whole blood FFC analysis of platelet activation was performed as previously described. Three color analysis was performed using two cocktails of fluorescently labeled antibodies: PE-conjugated anti-CD62P, FITC-conjugated PAC1 (directed against the high affinity conformation of integrin αIIbβ3) and PE-Cy5-conjugated anti-CD42b; or PE-conjugated anti-CD41a, FITC-conjugated anti-CD61 and PE-Cy5-conjugated anti-CD42b (see Table 2 for antibody information). Citrate-anticoagulated whole blood was treated with vehicle, TRAP or ADP at the indicated concentrations in the presence of the appropriate fluorescently labeled antibody cocktail for 30 minutes at ambient temperature. Samples were fixed in 1% formaldehyde/HEPES-saline buffer for 30 minutes prior to analysis in a FACSCalibur flow cytometer (BD Biosciences, San Jose, Calif.). Platelets were gated based on forward light scatter, side light scatter and CD42b expression (see FIG. 8 for FFC platelet gating strategy). A total of 15,000 platelet events per sample were collected. […]
as §4

[5] = system: platelet surface activated integrin αIIbβ3; experiment: cells; assay type: cell-based, human; remark: listed apart in the source
Procedure: as §2, §3, §5, §4

T1 sequence (P08514 32-887 limits assumed): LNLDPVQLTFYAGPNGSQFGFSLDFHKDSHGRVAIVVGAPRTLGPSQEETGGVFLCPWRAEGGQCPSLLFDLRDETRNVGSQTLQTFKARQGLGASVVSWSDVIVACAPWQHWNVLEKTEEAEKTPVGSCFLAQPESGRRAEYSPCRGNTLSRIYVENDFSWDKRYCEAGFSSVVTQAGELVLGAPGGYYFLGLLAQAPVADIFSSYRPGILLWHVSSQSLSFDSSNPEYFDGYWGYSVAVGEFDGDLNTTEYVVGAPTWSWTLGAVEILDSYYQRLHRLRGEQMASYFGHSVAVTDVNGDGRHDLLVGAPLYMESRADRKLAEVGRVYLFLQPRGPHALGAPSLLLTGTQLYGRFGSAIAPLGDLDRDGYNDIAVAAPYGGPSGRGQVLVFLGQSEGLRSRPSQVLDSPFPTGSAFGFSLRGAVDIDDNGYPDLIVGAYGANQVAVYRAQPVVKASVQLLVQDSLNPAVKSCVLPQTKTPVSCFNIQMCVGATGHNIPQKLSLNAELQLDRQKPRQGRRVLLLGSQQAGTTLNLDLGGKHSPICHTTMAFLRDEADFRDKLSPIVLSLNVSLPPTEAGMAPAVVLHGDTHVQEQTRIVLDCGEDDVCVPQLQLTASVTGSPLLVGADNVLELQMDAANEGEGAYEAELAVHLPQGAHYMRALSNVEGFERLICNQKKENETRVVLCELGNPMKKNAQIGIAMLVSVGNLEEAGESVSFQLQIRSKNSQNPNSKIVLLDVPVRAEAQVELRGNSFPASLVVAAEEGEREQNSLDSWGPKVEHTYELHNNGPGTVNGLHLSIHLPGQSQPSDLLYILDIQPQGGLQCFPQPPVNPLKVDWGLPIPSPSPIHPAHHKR
T1 sequence (P08514 891-1039 limits assumed): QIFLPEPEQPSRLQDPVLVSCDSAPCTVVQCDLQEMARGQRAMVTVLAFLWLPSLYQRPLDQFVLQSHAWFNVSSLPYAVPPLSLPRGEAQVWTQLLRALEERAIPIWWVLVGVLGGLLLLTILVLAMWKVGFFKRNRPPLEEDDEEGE
T1 sequence (P05106 27-788): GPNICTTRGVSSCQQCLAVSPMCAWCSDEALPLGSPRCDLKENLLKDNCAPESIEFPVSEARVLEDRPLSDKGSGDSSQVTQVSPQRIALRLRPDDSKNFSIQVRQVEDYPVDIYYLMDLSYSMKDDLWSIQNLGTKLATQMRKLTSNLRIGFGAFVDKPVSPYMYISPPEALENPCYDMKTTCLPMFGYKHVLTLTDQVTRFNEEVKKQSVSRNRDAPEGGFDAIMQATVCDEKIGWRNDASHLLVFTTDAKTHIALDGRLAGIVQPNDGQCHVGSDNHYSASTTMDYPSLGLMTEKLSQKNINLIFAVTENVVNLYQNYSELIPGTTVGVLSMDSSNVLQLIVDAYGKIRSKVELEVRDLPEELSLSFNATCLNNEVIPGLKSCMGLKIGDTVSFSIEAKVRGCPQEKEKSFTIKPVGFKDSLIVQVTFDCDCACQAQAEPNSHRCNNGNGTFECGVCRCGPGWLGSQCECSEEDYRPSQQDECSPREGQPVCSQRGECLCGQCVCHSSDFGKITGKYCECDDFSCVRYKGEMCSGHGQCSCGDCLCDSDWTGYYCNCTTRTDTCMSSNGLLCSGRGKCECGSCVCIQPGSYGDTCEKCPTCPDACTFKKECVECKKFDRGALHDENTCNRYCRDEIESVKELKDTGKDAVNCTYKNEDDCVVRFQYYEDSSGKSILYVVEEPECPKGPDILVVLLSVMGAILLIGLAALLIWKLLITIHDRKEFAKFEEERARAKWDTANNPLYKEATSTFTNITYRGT

Structure (SMILES)	Platelet surface activated αIIbβ3 expression compared with unstimulated controls [1]	EC50 ([2]; Homo sapiens, Platelet, 0.5 h, MC, CD62P-172Yb, citrate whole blood of healthy donors, 30 minutes, read-out: EC50 for agonist-induced platelet surface P-selectin expression)	EC50 ([3]; Homo sapiens, Platelet, 0.5 h, MC, anti-PAC1-159Tb, citrate whole blood of healthy donors, 30 minutes, read-out: EC50 for agonist-induced platelet surface activated αIIbβ3)	Platelet surface CD41, CD61, CD63, CD9, CD107a and CD154 (platelets in whole blood)	Platelet surface CD42a and CD42b (platelets in whole blood)	Surface plasma membrane levels of CD31, CD36, CD29 and GPVI (platelets in whole blood)	EC50 ([4]; Homo sapiens, Platelet, 0.5 h, FFC, CD62P-PE, citrate whole blood of healthy donors, 30 minutes, read-out: EC50 for agonist-induced platelet surface P-selectin expression)	EC50 ([5]; Homo sapiens, Platelet, 0.5 h, FFC, anti-PAC1-FITC, citrate whole blood of healthy donors, 30 minutes, read-out: EC50 for agonist-induced platelet surface activated αIIbβ3)	EC50 [2]	EC50 [3]	EC50 [4]	EC50 [5]	Blockade of anti-PAC1-159Tb binding to activated integrin αIIbβ3 ([1]; eptifibatide 2.5 μg/mL, following TRAP/ADP (200 μM) stimulation)
Nc1ncnc2c1ncn2[C@@H]1O[C@H](COP(=O)(O)OP(=O)(O)O)[C@@H](O)[C@H]1O [ADP, Adenosine 5′-diphosphate]	significantly elevated	1.3 µM	0.8 µM	elevated in a dose-dependent manner	stayed constant	remained constant	1.2 µM	0.6 µM	–	–	–	–	–
CC(C)C[C@H](NC(=O)[C@H](CC(C)C)NC(=O)[C@H](Cc1ccccc1)NC(=O)[C@@H](N)CO)C(=O)N[C@@H](CCCNC(=N)N)C(=O)N[C@@H](CC(N)=O)C(N)=O [TRAP, SFLLRN-NH2]	significantly elevated	–	–	elevated in a dose-dependent manner	trend to be dose-dependently decreased	remained constant	–	–	3.4 µM	3.7 µM	2.3 µM	2.1 µM	–
N=C(N)NCCCC[C@@H]1NC(=O)CCSSC[C@@H](C(N)=O)NC(=O)[C@@H]2CCCN2C(=O)[C@H](Cc2c[nH]c3ccccc23)NC(=O)[C@H](CC(=O)O)NC(=O)CNC1=O [eptifibatide] ([Mpa][hArg]GDWPC-NH2; disulfide 1-7)	–	–	–	–	–	–	–	–	–	–	–	–	completely blocked
